# Laboratory results from PMC6118387, “In silico drug absorption tract: An agent-based biomimetic model for human oral drug absorption” (PLoS ONE, 2018).
# Several values for one entry are separate records, joined by “and”; a condition that tells them apart may be missing. Identical values can stand only once. Like-named read-outs stand apart in the source and are kept apart here.
# Assays:
# [1] = Clinical bioequivalence study: plasma concentrations (LC-MS-MS) and noncompartmental PK after oral tablet; format: in vivo, human; details: for Concentration, individual subjects / concentration at 0 h / concentration at 0.5 h / concentration at 1 h / concentration at 1.5 h / concentration at 2 h / concentration at 3 h / concentration at 4 h / concentration at 6 h / concentration at 8 h / concentration at 10 h / concentration at 12 h / concentration at 24 h / concentration at 48 h / concentration at 72 h / concentration at 96 h: clonazepam 2 mg oral; for concentration at 0 h / concentration at 0.5 h / concentration at 1 h / concentration at 1.5 h / concentration at 2 h / concentration at 3 h / concentration at 4 h / concentration at 6 h / concentration at 8 h / concentration at 10 h / concentration at 12 h / concentration at 24 h / concentration at 48 h / concentration at 72 h / concentration at 96 h: po
# [2] = clonazepam, literature referent value, cited from earlier work
# [3] = model drug parameter fixed to literature reported value, cited from earlier work
# [4] = Referent clinical, clonazepam 2 mg tablet oral, N = 14, mean ±1 SD
# [5] = human, plasma, 2 mg, plasma, MEAN column of the sheet with 15 subject columns, read-out: Concentration, MEAN of raw data sheet
# [6] = human, plasma, 2 mg, plasma, mean ±1 SD N=14, read-out: Concentration, Referent
# [7] = human, plasma, 2 mg, plasma, one value per subject (A1-A6, A8, B1-B8; B5 consumed alcohol), read-out: Concentration, individual subjects
# [8] = human, plasma, Referent clinical, clonazepam 2 mg tablet oral, N = 14, mean ±1 SD
compound,measurement,setting,value
"O=C1CN=C(c2ccccc2Cl)c2cc([N+](=O)[O-])ccc2N1 [Clonazepam, clonazepam]",CL/F,[1]; [4],3.88 ± 0.68 L/h
same,V/F,[1]; [4],186.84 ± 25.25 L
same,"Concentration, individual subjects","[1]; plasma, 4 h, one value per subject (A1-A6, A8, B1-B8; B5 consumed alcohol)",12.61 ng/mL and 14.34 ng/mL and 8.84 ng/mL and 12.65 ng/mL and 11.84 ng/mL and 14.63 ng/mL and 14.50 ng/mL and 12.96 ng/mL and 13.82 ng/mL and 11.06 ng/mL and 13.21 ng/mL and 17.02 ng/mL and 10.16 ng/mL and 10.55 ng/mL
same,"Concentration, individual subjects","[1]; plasma, 6 h, one value per subject (A1-A6, A8, B1-B8; B5 consumed alcohol)",10.50 ng/mL and 9.64 ng/mL and 15.51 ng/mL and 7.70 ng/mL and 10.12 ng/mL and 10.42 ng/mL and 11.00 ng/mL and 12.04 ng/mL and 12.42 ng/mL and 11.68 ng/mL and 12.48 ng/mL and 8.95 ng/mL and 12.72 ng/mL and 9.18 ng/mL and 8.60 ng/mL
same,"Concentration, individual subjects","[1]; plasma, 8 h, one value per subject (A1-A6, A8, B1-B8; B5 consumed alcohol)",8.58 ng/mL and 9.87 ng/mL and 7.12 ng/mL and 7.80 ng/mL and 8.38 ng/mL and 11.29 ng/mL and 11.40 ng/mL and 10.91 ng/mL and 10.98 ng/mL and 11.71 ng/mL and 8.16 ng/mL and 11.31 ng/mL and 8.88 ng/mL and 8.34 ng/mL
same,"Concentration, individual subjects","[1]; plasma, 10 h, one value per subject (A1-A6, A8, B1-B8; B5 consumed alcohol)",8.87 ng/mL and 11.42 ng/mL and 6.58 ng/mL and 7.89 ng/mL and 9.42 ng/mL and 8.97 ng/mL and 9.96 ng/mL and 11.87 ng/mL and 8.66 ng/mL and 9.83 ng/mL and 8.47 ng/mL and 9.69 ng/mL and 7.40 ng/mL and 7.44 ng/mL
same,"Concentration, individual subjects","[1]; plasma, 12 h, one value per subject (A1-A6, A8, B1-B8; B5 consumed alcohol)",8.09 ng/mL and 8.83 ng/mL and 6.28 ng/mL and 6.29 ng/mL and 8.86 ng/mL and 7.97 ng/mL and 9.45 ng/mL and 11.04 ng/mL and 8.02 ng/mL and 9.77 ng/mL and 7.69 ng/mL and 8.43 ng/mL and 7.52 ng/mL and 6.76 ng/mL
same,"Concentration, individual subjects","[1]; plasma, 24 h, one value per subject (A1-A6, A8, B1-B8; B5 consumed alcohol)",7.01 ng/mL and 7.87 ng/mL and 5.83 ng/mL and 6.96 ng/mL and 7.45 ng/mL and 7.77 ng/mL and 8.74 ng/mL and 8.99 ng/mL and 7.52 ng/mL and 8.66 ng/mL and 7.57 ng/mL and 8.32 ng/mL and 5.43 ng/mL and 6.77 ng/mL
same,"Concentration, individual subjects","[1]; plasma, 48 h, one value per subject (A1-A6, A8, B1-B8; B5 consumed alcohol)",4.72 ng/mL and 5.20 ng/mL and 6.30 ng/mL and 3.61 ng/mL and 5.16 ng/mL and 4.16 ng/mL and 6.22 ng/mL and 4.74 ng/mL and 6.11 ng/mL and 5.31 ng/mL and 5.10 ng/mL and 5.12 ng/mL and 5.25 ng/mL and 4.06 ng/mL and 3.12 ng/mL
same,Cmax,"[1]; human, plasma, oral, 2 mg, clonazepam, peak of the mean clinical concentration-time profile over 96 hours",13.5 ng/mL
same,concentration at 0 h,[1]; [5],0 ng/mL
same,concentration at 0 h,[1]; [6],0 ng/mL
same,concentration at 0 h,[1]; [7],0 ng/mL
same,concentration at 0.5 h,[1]; [5],6.65 ng/mL
same,concentration at 0.5 h,[1]; [6],7.13 ± 7.06 ng/mL
same,concentration at 1 h,[1]; [5],13 ng/mL
same,concentration at 1 h,[1]; [6],13.4 ± 5.29 ng/mL
same,concentration at 1.5 h,[1]; [5],13.5 ng/mL
same,concentration at 1.5 h,[1]; [6],13.9 ± 3.71 ng/mL
same,concentration at 2 h,[1]; [5],13.1 ng/mL
same,concentration at 2 h,[1]; [6],13.3 ± 2.82 ng/mL
same,concentration at 2 h,[1]; [7],13.7 ng/mL
same,concentration at 3 h,[1]; [5],12.7 ng/mL
same,concentration at 3 h,[1]; [6],12.9 ± 2.36 ng/mL
same,concentration at 3 h,[1]; [7],12.5 ng/mL
same,concentration at 4 h,"[1]; human, plasma, 2 mg, plasma, 4 h, MEAN column of the sheet with 15 subject columns, read-out: Concentration, MEAN of raw data sheet",12.7 ng/mL
same,concentration at 4 h,"[1]; human, plasma, 2 mg, plasma, 4 h, mean ±1 SD N=14, read-out: Concentration, Referent",13 ± 1.82 ng/mL
same,concentration at 4 h,"[1]; human, plasma, 2 mg, plasma, 4 h, one value per subject (A1-A6, A8, B1-B8; B5 consumed alcohol), read-out: Concentration, individual subjects",12.7 ng/mL
same,concentration at 6 h,"[1]; human, plasma, 2 mg, plasma, 6 h, MEAN column of the sheet with 15 subject columns, read-out: Concentration, MEAN of raw data sheet",10.9 ng/mL
same,concentration at 6 h,"[1]; human, plasma, 2 mg, plasma, 6 h, mean ±1 SD N=14, read-out: Concentration, Referent",11.1 ± 1.87 ng/mL
same,concentration at 8 h,"[1]; human, plasma, 2 mg, plasma, 8 h, MEAN column of the sheet with 15 subject columns, read-out: Concentration, MEAN of raw data sheet",9.62 ng/mL
same,concentration at 8 h,"[1]; human, plasma, 2 mg, plasma, 8 h, mean ±1 SD N=14, read-out: Concentration, Referent",9.8 ± 1.43 ng/mL
same,concentration at 8 h,"[1]; human, plasma, 2 mg, plasma, 8 h, one value per subject (A1-A6, A8, B1-B8; B5 consumed alcohol), read-out: Concentration, individual subjects",9.63 ng/mL
same,concentration at 10 h,"[1]; human, plasma, 2 mg, plasma, 10 h, MEAN column of the sheet with 15 subject columns, read-out: Concentration, MEAN of raw data sheet",9.05 ng/mL
same,concentration at 10 h,"[1]; human, plasma, 2 mg, plasma, 10 h, mean ±1 SD N=14, read-out: Concentration, Referent",9.23 ± 1.31 ng/mL
same,concentration at 10 h,"[1]; human, plasma, 2 mg, plasma, 10 h, one value per subject (A1-A6, A8, B1-B8; B5 consumed alcohol), read-out: Concentration, individual subjects",9.31 ng/mL
same,concentration at 12 h,"[1]; human, plasma, 2 mg, plasma, 12 h, MEAN column of the sheet with 15 subject columns, read-out: Concentration, MEAN of raw data sheet",8.25 ng/mL
same,concentration at 12 h,"[1]; human, plasma, 2 mg, plasma, 12 h, mean ±1 SD N=14, read-out: Concentration, Referent",8.39 ± 1.22 ng/mL
same,concentration at 12 h,"[1]; human, plasma, 2 mg, plasma, 12 h, one value per subject (A1-A6, A8, B1-B8; B5 consumed alcohol), read-out: Concentration, individual subjects",8.78 ng/mL
same,concentration at 24 h,"[1]; human, plasma, 2 mg, plasma, 24 h, MEAN column of the sheet with 15 subject columns, read-out: Concentration, MEAN of raw data sheet",7.53 ng/mL
same,concentration at 24 h,"[1]; human, plasma, 2 mg, plasma, 24 h, mean ±1 SD N=14, read-out: Concentration, Referent",7.65 ± 0.93 ng/mL
same,concentration at 24 h,"[1]; human, plasma, 2 mg, plasma, 24 h, one value per subject (A1-A6, A8, B1-B8; B5 consumed alcohol), read-out: Concentration, individual subjects",8.02 ng/mL
same,concentration at 48 h,"[1]; human, plasma, 2 mg, plasma, 48 h, MEAN column of the sheet with 15 subject columns, read-out: Concentration, MEAN of raw data sheet",4.95 ng/mL
same,concentration at 48 h,"[1]; human, plasma, 2 mg, plasma, 48 h, mean ±1 SD N=14, read-out: Concentration, Referent",5.04 ± 0.87 ng/mL
same,concentration at 72 h,[1]; [5],3.13 ng/mL
same,concentration at 72 h,[1]; [6],3.22 ± 0.71 ng/mL
same,concentration at 96 h,[1]; [5],1.89 ng/mL
same,concentration at 96 h,[1]; [6],1.95 ± 0.58 ng/mL
same,AUC,[1]; [8],529 ± 80.8 ng·h/mL
same,Cmax,[1]; [8],16.2 ± 4.28 ng/mL
same,half-life,[1]; [8],49 ± 7.79 h
same,k el,[1]; [8],5.83e-06 s⁻¹
same,Tmax,"[1]; human, plasma, Referent clinical, clonazepam 2 mg tablet oral, N = 14, median, read-out: Tmax",1.5 h
same,F (absolute oral bioavailability),[2],≥ 90%
same,Fa × Fg,[2],93–95%
same,Fh,[2],95–97%
same,Fa × Fg,[2]; listed as clonazepam,93–95%
same,Fh,[2]; listed as clonazepam,95–97%
same,"Pka, In silico acid/base equilibrium constant",[3]; first printed value,1.86
same,"Pka, In silico acid/base equilibrium constant",[3]; second printed value,11.89
